According to patent publication US12466812B2, “Pyridinyltriazine derivative having protein kinase inhibitory activity, and pharmaceutical composition for preventing, ameliorating, or treating cancer comprising same” (KOREA INSTITUTE OF SCIENCE AND TECHNOLOGY, priority 2019, dated 2025):

What was measured:
[1] = target: CDK4 (Homo sapiens, UniProt P11802); experiment: Kinase panel biochemical assay; settings: single concentration of 1 μM; panel of 369 kinases; read-out: kinase activity inhibited (%), CDK4
Sequence of CDK4 (P11802 whole entry): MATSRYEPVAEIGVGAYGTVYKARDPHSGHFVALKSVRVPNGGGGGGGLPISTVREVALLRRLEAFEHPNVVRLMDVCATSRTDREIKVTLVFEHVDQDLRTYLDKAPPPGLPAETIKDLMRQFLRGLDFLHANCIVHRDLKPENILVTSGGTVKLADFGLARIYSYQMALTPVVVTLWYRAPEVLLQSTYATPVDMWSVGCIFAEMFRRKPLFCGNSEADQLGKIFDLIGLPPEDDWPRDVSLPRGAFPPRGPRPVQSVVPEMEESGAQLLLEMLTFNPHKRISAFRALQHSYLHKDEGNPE
Sequence of CDK4 (P24385 whole entry partner): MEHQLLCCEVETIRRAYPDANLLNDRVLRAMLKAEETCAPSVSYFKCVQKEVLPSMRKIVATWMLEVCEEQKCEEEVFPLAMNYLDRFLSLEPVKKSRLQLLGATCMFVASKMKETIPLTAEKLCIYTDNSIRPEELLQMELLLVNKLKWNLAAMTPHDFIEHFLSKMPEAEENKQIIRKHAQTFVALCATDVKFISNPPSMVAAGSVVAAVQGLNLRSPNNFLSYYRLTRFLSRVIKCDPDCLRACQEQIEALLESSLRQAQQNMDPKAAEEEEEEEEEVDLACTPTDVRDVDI
Procedure: (§1) In order to measure the inhibitory activity (%) against protein kinases of the compounds of the present invention, biochemical assays were performed on a full kinase panel composed of 369 kinases.

[2] = target: CDK6 (Homo sapiens, UniProt Q00534); experiment: Kinase panel biochemical assay; settings: single concentration of 1 μM; panel of 369 kinases; read-out: kinase activity inhibited (%), CDK6
Procedure: as §1

[3] = target: CLK2 (Homo sapiens, UniProt P49760); experiment: Kinase panel biochemical assay; settings: single concentration of 1 μM; panel of 369 kinases; read-out: kinase activity inhibited (%), CLK2
Sequence of CLK2 (P49760 whole entry): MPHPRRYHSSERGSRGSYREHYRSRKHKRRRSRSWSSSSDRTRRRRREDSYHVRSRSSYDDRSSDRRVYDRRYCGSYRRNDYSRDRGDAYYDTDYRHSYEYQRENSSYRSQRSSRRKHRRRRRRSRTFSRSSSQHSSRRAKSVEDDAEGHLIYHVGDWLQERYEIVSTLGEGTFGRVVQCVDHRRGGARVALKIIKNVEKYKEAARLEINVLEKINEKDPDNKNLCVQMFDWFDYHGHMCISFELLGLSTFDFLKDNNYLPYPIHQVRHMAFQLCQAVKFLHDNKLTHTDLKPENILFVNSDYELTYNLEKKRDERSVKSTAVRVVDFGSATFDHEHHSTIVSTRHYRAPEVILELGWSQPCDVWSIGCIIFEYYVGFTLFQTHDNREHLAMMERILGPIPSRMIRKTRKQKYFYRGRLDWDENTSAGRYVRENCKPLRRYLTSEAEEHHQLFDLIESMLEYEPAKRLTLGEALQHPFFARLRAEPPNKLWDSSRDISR
Procedure: as §1

[4] = target: DDR1 (Homo sapiens, UniProt Q08345); experiment: Kinase panel biochemical assay; settings: single concentration of 1 μM; panel of 369 kinases; read-out: kinase activity inhibited (%), DDR1
Procedure: as §1

[5] = target: FGFR2 (Homo sapiens, UniProt P21802); experiment: Kinase panel biochemical assay; settings: single concentration of 1 μM; panel of 369 kinases; read-out: kinase activity inhibited (%), FGFR2
Procedure: as §1

[6] = target: FGFR3 (Homo sapiens, UniProt P22607); experiment: Kinase panel biochemical assay; settings: single concentration of 1 μM; panel of 369 kinases; read-out: kinase activity inhibited (%), FGFR3
Procedure: as §1

[7] = target: FGFR4 (Homo sapiens, UniProt P22455); experiment: Kinase panel biochemical assay; settings: single concentration of 1 μM; panel of 369 kinases; read-out: kinase activity inhibited (%), FGFR4
Procedure: as §1

[8] = target: FMS (Homo sapiens, UniProt P07333); experiment: Kinase panel biochemical assay; settings: single concentration of 1 μM; panel of 369 kinases; read-out: kinase activity inhibited (%), FMS
Procedure: as §1

[9] = target: IRAK1 (Homo sapiens, UniProt P51617); experiment: Kinase panel biochemical assay; settings: single concentration of 1 μM; panel of 369 kinases; read-out: kinase activity inhibited (%), IRAK1
Procedure: as §1

[10] = target: LCK (Homo sapiens, UniProt P06239); experiment: Kinase panel biochemical assay; settings: single concentration of 1 μM; panel of 369 kinases; read-out: kinase activity inhibited (%), LCK
Procedure: as §1

[11] = target: LYN (Homo sapiens, UniProt P07948); experiment: Kinase panel biochemical assay; settings: single concentration of 1 μM; panel of 369 kinases; read-out: kinase activity inhibited (%), LYN
Procedure: as §1

[12] = target: MAK (Homo sapiens, UniProt P20794); experiment: Kinase panel biochemical assay; settings: single concentration of 1 μM; panel of 369 kinases; read-out: kinase activity inhibited (%), MAK
Procedure: as §1

[13] = target: MPSK1 (Homo sapiens, UniProt O75716); experiment: Kinase panel biochemical assay; settings: single concentration of 1 μM; panel of 369 kinases; read-out: kinase activity inhibited (%), MPSK1
Sequence of MPSK1 (O75716 whole entry): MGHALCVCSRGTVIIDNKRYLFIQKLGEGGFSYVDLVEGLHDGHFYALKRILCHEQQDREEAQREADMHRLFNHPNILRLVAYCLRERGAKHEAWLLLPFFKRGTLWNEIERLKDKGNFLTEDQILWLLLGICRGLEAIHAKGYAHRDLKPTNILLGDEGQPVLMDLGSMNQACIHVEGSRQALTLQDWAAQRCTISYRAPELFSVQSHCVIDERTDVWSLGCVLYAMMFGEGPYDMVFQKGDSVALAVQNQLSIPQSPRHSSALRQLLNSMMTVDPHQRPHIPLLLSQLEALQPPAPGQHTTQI
Procedure: as §1

[14] = target: PCTAIRE1 (Homo sapiens, UniProt Q00536); experiment: Kinase panel biochemical assay; settings: single concentration of 1 μM; panel of 369 kinases; read-out: kinase activity inhibited (%), PCTAIRE1
Procedure: as §1

[15] = target: PCTAIRE2 (Homo sapiens, UniProt Q00537); experiment: Kinase panel biochemical assay; settings: single concentration of 1 μM; panel of 369 kinases; read-out: kinase activity inhibited (%), PCTAIRE2
Sequence of PCTAIRE2 (Q00537 whole entry): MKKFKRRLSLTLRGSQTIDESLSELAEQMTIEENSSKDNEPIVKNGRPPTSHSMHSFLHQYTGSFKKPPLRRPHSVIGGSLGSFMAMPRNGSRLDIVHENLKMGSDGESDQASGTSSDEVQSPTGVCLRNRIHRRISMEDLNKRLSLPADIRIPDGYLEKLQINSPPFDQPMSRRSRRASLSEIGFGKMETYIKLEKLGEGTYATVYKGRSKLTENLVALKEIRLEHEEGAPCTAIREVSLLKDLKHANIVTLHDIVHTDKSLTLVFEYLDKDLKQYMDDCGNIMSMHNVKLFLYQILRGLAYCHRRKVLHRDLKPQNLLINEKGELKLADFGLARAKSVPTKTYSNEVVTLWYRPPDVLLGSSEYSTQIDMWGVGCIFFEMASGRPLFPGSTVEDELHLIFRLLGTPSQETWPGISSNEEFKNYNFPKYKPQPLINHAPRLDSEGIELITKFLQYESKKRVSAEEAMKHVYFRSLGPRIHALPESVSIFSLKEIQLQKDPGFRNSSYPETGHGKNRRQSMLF
Sequence of PCTAIRE2 (Q8ND76 whole entry partner): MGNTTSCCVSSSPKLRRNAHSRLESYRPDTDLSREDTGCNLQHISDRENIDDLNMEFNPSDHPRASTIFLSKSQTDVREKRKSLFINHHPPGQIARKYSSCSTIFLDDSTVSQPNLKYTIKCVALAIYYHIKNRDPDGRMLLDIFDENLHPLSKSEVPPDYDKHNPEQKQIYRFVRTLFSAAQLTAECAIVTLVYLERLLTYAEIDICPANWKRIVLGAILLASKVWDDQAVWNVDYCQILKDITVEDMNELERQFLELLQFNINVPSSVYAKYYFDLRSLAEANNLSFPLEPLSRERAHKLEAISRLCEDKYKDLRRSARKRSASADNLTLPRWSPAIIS
Procedure: as §1

[16] = target: PHKg1 (Homo sapiens, UniProt Q16816); experiment: Kinase panel biochemical assay; settings: single concentration of 1 μM; panel of 369 kinases; read-out: kinase activity inhibited (%), PHKg1
Sequence of PHKg1 (Q16816 whole entry): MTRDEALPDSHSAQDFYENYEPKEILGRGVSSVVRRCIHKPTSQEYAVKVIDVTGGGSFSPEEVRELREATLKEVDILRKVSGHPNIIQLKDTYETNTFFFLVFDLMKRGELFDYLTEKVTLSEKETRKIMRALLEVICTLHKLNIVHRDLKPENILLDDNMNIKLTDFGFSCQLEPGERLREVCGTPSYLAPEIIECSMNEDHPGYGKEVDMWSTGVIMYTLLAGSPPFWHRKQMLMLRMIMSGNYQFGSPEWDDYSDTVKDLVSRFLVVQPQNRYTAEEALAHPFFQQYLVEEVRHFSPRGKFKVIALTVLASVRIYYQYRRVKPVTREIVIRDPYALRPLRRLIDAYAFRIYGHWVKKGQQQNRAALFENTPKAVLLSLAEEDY
Procedure: as §1

[17] = target: ROS (Homo sapiens, UniProt P08922); experiment: Kinase panel biochemical assay; settings: single concentration of 1 μM; panel of 369 kinases; read-out: kinase activity inhibited (%), ROS
Sequence of ROS (P08922 28-2347): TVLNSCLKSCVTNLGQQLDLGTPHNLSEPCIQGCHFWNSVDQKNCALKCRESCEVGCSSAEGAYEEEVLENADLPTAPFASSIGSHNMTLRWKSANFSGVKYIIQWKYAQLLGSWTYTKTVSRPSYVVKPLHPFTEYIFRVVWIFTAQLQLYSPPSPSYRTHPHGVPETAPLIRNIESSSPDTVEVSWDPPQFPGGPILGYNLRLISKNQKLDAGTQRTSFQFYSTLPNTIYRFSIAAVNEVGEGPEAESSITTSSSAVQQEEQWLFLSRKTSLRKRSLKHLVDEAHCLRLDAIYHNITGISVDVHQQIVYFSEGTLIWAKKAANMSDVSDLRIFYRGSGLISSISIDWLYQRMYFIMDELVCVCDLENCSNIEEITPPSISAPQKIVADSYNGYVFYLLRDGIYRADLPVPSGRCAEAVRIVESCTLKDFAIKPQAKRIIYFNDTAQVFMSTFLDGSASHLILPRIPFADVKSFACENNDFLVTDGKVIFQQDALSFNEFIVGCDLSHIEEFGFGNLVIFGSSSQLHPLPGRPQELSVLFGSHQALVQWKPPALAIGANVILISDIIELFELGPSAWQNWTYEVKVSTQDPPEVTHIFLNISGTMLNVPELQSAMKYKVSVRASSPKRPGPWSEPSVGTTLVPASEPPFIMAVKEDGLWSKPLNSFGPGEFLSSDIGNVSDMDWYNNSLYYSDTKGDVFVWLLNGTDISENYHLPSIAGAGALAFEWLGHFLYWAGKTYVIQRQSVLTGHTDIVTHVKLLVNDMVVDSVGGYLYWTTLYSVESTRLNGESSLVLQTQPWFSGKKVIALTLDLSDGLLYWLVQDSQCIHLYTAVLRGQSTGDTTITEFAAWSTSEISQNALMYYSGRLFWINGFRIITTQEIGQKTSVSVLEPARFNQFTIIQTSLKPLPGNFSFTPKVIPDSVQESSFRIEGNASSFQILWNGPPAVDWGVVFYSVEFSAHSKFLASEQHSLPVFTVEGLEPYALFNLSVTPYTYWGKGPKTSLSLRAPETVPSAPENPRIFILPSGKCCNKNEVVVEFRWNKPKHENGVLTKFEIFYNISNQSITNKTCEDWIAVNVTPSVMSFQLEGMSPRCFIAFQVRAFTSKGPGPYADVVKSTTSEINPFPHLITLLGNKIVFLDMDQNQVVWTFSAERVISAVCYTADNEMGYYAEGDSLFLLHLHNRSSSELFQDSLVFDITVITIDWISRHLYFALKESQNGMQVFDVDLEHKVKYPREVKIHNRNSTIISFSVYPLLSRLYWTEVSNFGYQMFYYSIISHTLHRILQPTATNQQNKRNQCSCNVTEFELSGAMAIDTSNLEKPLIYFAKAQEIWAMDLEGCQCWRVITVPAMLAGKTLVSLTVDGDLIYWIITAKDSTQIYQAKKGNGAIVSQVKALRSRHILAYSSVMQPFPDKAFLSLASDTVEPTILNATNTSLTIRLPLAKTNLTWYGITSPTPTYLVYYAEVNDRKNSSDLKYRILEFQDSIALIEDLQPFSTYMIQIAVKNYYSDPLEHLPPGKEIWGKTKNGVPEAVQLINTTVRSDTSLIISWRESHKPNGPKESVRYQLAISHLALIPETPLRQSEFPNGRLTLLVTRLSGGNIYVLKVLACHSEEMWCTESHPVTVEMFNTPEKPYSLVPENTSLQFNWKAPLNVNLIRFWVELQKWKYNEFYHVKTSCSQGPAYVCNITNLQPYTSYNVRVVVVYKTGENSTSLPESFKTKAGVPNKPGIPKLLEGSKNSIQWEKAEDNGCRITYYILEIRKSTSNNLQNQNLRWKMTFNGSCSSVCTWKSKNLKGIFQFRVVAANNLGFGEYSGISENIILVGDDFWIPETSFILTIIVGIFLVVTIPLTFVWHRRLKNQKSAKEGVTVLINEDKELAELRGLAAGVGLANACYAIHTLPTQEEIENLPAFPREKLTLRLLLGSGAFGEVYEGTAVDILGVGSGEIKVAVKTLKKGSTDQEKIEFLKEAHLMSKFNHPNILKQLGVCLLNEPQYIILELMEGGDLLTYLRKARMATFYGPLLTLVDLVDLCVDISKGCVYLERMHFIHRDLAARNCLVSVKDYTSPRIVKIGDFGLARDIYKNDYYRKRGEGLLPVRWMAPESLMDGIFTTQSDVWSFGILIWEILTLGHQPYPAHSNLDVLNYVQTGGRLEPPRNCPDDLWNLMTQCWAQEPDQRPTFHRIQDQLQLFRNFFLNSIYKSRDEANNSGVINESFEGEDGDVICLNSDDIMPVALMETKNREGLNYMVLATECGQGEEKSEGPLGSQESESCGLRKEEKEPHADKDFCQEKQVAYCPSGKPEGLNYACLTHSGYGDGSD
Procedure: as §1

[18] = target: TAO2 (Homo sapiens, UniProt Q9UL54); experiment: Kinase panel biochemical assay; settings: single concentration of 1 μM; panel of 369 kinases; read-out: kinase activity inhibited (%), TAO2
Procedure: as §1

[19] = system: AN3-CA; experiment: Pan-FGFR mutant cellular activity; type: cell-based; settings: Homo sapiens, mutant cell, Table 4, read-out: GI50, AN3-CA (breast cancer cell line)
Procedure: (§2) The inhibitory activity against pan-FGFR mutants of the compounds synthesized in Examples 1, 8, 13, 22, and 24 was measured, the inhibitory activity on each of enzymatic activity and cellular activity was evaluated, and the results are shown in Tables 3 and 4 below.

[20] = system: J82 (bladder cancer cell line); experiment: Pan-FGFR mutant cellular activity; type: cell-based; settings: Table 4
Procedure: as §2

[21] = system: KMS-11 (myeloma cell line); experiment: Pan-FGFR mutant cellular activity; type: cell-based; settings: Homo sapiens, Table 4
Procedure: as §2

[22] = system: UMUC3 (bladder cancer cell line); experiment: Pan-FGFR mutant cellular activity; type: cell-based; settings: Homo sapiens, Table 4
Procedure: as §2

[23] = system: UMUC3, bladder cancer cell line overexpressing FGFR1 (xenograft); experiment: In-vivo efficacy in animal model transplanted with bladder cancer cell line; settings: UMUC3 xenograft in BALB/C nude mice, oral 20 mpk once a day, compared to control drug BGJ398
From the text: Specifically, 6-7 week old BALB/C nude mice xenografted with UMUC3, which was a bladder cancer cell line overexpressing FGFR1, were used as an animal model. BGJ398 (manufactured by Novartis), a known FGFR inhibitor, was used as a control drug. A mixed solution (pH=4) of 5% N-methylpyrrolidinone (NMP), 6% Solutol, 20% polyethylene glycol (PEG400), and 69′% distilled water was used as a vehicle. At this time, the drug was orally administered at a concentration of 20 mpk (mg/kg) once a day.

inhibition at 1 µM [1]: ≥ 90%
inhibition at 1 µM [2]: ≥ 90%
inhibition at 1 µM [3]: ≥ 90%
inhibition at 1 µM [4]: ≥ 90%
inhibition at 1 µM [5]: ≥ 90%
inhibition at 1 µM [6]: ≥ 90%
inhibition at 1 µM [7]: ≥ 90%
inhibition at 1 µM [8]: ≥ 90%
inhibition at 1 µM [9]: ≥ 90%
inhibition at 1 µM [10]: ≥ 90%
inhibition at 1 µM [11]: ≥ 90%
inhibition at 1 µM [12]: ≥ 90%
inhibition at 1 µM [13]: ≥ 90%
inhibition at 1 µM [14]: ≥ 90%
inhibition at 1 µM [15]: ≥ 90%
inhibition at 1 µM [16]: ≥ 90%
inhibition at 1 µM [17]: ≥ 90%
inhibition at 1 µM [18]: ≥ 90%
GI50 [20]: 1000 to 10000 nM
GI50 [21]: < 1000 nM
GI50 [22]: 1000 to 10000 nM
Compound: CCN1CCN(c2ccc(Nc3ncnc(-c4cccnc4Nc4c(Cl)c(OC)cc(OC)c4Cl)n3)cc2)CC1 [Example 1]
GI50 [19]: < 1000 nM
tumor volume reduction effect [23]: excellent tumor volume reduction effect
